In the METLIN SMRT retention time set (Domingo-Almenara et al. 2019) one finds RP-LC retention time data, which are given here for 79 compounds.

Each structure is given as a SMILES string.

The series is described as follows: gradient 5% acetonitrile 3 min, to 50% in 2 min, to 85% in 15 min, held 3 min, 100 µL/min. The conditions noted are these: column: Zorbax Extend-C18 2.1 x 50 mm; eluents: water / acetonitrile, 0.1% formic acid. The method in brief:
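Retention times come from adduct peaks that were picked computationally and then checked by hand. The standards, pure and pooled in mixtures of ~100 molecules, were run on a Zorbax Extend-C18 column (2.1 × 50 mm, 1.8 μm) at 100 μL/min with water and acetonitrile, each with 0.1% formic acid. Detection was by quadrupole time-of-flight mass spectrometry in positive and negative ionization mode, with a dead volume of 40 μL and a dwell volume of 900 μL.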
`CCOC(=O)CNC(=O)NC12CC3CC(CC(C3)C1)C2` came in with an RP-LC retention time of 802 s.
The same measure for `Cc1ccccc1NC(=O)N(C)CCc1noc(COc2ccccc2F)n1`: 926 s; for `Cc1ccccc1CN1N=C(C(=O)N2CCOCC2)S(=O)(=O)c2ccccc21`: 826 s.
The same measure for `CN(Cc1ccccc1)c1ncc(C(=O)O)c(-c2ccncc2)n1`: 675 s.
`COCCCNC(=O)CCCn1c2ccccc2c2cnn(C)c(=O)c21` returned an RP-LC retention time of 688 s.
For `CCCCS(=O)(=O)NCC#CCN1CCc2ccccc2C1` the value was 564 s; for `CC(C)CCNC(=O)C1(C)Cn2nc(C(=O)NCCc3ccccc3)cc2C(=O)N1C` (centres undefined), 791 s; for `CCCNC(=O)C1CCCN(c2ccc(SCC(=O)Nc3cccc(C)c3)nn2)C1` (centres undefined), 674 s.
In turn, `COc1cc(NC(=O)N2CCN(c3cc(C)nc(N4CCCC4)n3)CC2)cc(OC)c1` showed an RP-LC retention time of 676 s.
For `O=S(=O)(c1ccccc1Cl)N1CCN(Cc2cccc(F)c2)C2(CCOCC2)C1` the value was 846 s; for `CCc1nc(OCC(=O)Nc2ccc(C)c(F)c2)c2ccccc2n1`, 872 s; for `Cc1cc(=O)n(CC(=O)Nc2ccccc2Cl)c(N2CCCC2)n1`, 661 s.
For `COC(=O)c1ccc(C(=O)NCc2nc(C)no2)cc1` the value was 637 s; for `COc1ccccc1C(=O)Nc1c(-c2ccc(F)cc2)nc2ccccn12`, 676 s.
As for `CCCNC(=O)C1CCCN(c2nc3ncn(CC(=O)Nc4ccccc4F)c(=O)c3s2)C1` (centres undefined), the RP-LC retention time is 679 s.
Compound `Cc1ccc(NC(=O)CN2C(=O)CCc3cc(S(=O)(=O)N4CCCCC4C)ccc32)c(C)c1` (centres undefined) showed an RP-LC retention time of 945 s.
For `CCC(=O)N1CCc2cc(-c3ccc(C(=O)NC(C)C)cc3)ccc21` the value was 832 s.
`CC(C)c1nc(-c2ccc(OC3CCN(S(=O)(=O)c4cn(C)cn4)C3)cc2)no1` (centres undefined) gave an RP-LC retention time of 853 s.
For `COCC(=O)N(C1CCOCC1)C1CCN(S(=O)(=O)c2cccc(F)c2)CC1` the value was 758 s.
Turning to `CCOC(=O)c1c(NCCC(C)C)c2cc(Cl)ccc2[nH]c1=O`, the RP-LC retention time was determined as 890 s.
The same measure for `O=C(CN1C(=O)CCCc2cc(S(=O)(=O)N3CCCCC3)ccc21)NC1CCCCC1`: 880 s.
Compound `Cc1cc(C)c(C)c(S(=O)(=O)N2CCC3(CCN(c4cccnc4)C3)C2)c1C` (centres undefined) showed an RP-LC retention time of 762 s.
Compound `Cc1cc(=O)n(CC(=O)Nc2cc(F)ccc2F)c(-c2ccccc2)n1` registered an RP-LC retention time of 1010 s.
The same measure for `CN(C)C(CNC(=O)c1cc(-c2cccs2)on1)c1ccc(F)cc1` (centres undefined): 668 s.
`NC(=O)c1ccc(NC(=O)CSC2=Nc3ccccc3N=C(c3ccccn3)C2)cc1` yielded an RP-LC retention time of 738 s.
As to `O=C(c1ccc(F)cc1)N1CCC2(CC1)OCC(C(=O)N1CCCC1)N2C(=O)c1cccc(F)c1` (centres undefined), the RP-LC retention time stood at 715 s.
Consider `CN(C)CCCn1c(C2CC(=O)N(c3ccc(F)cc3)C2)nc2ccccc21` (centres undefined), for which the RP-LC retention time was found to be 590 s.
For `COC1CN(c2cccc(F)c2)C12CCN(CC1CCCCC1)CC2` (centres undefined) the value was 806 s; for `Cc1cccc(NC(=O)c2cc(C(C)C)n3nccc3n2)c1`, 1160 s; for `CC1CCCN(C(=O)Cn2nc(-c3nc(-c4ccc5c(c4)OCO5)no3)ccc2=O)C1` (centres undefined), 765 s.
`Cc1cc(C)c(S(=O)(=O)N2CCC[C@@H]2C(=O)NCCc2csc(C)n2)c(C)c1` gave an RP-LC retention time of 814 s.
Turning to `Cc1nn(-c2nc(-c3ccc(Cl)cc3)cs2)c(C)c1CC(=O)NCc1ccccc1`, the RP-LC retention time was 1170 s.
The same measure for `COC(=O)c1cc2n(n1)CC(C)(C(=O)NC1CCC(C)CC1)N(Cc1ccccc1)C2=O` (centres undefined): 816 s; for `Cc1ccc(-n2c(=O)n(C)c(=O)c3cc(C(=O)Nc4ccc(F)cc4)cnc32)cc1`: 904 s; for `O=c1n(Cc2ccc(F)cc2)nc2ccc(S(=O)(=O)N3CCOCC3)cn12`: 785 s.
The same measure for `COc1ccc(CC(=O)Nc2nnc(C3CC(=O)N(c4ccc(Cl)cc4)C3)o2)cc1` (centres undefined): 761 s.
Compound `Cc1nc(N2CCN(C(=O)CCCc3ccccc3)CC2)cc(-n2cccn2)n1` registered an RP-LC retention time of 928 s.
For `Cc1ccc(-c2cn3c(CC(=O)N4CCc5ccccc54)csc3n2)cc1C` the value was 901 s.
In turn, `CCN(CC)CCNC(=O)c1cc2n(n1)CCCN(Cc1cccc(C)c1)C2=O` gave an RP-LC retention time of 630 s.
For `CCCn1cc(C(=O)NCC(=O)OCC)c(S(=O)(=O)N2CCN(c3ccc(Cl)cc3)CC2)n1` the value was 1040 s; for `CS(=O)(=O)c1ccc(NC(=O)C2CN(C(=O)c3ccc(F)c(F)c3)C2)cc1`, 661 s; for `CCOC(=O)c1cnc(SCC(=O)N2CCC(C(N)=O)CC2)nc1N`, 602 s.
The same measure for `CCCNS(=O)(=O)c1cc(-c2[nH]ncc2C(=O)N(C)C)oc1C`: 608 s; for `O=C(NCC1CCCCC1)c1ccc2c(c1)nc1n2CCN(C2CCCCC2)C1=O`: 872 s.
In the case of `CNC(=O)OCN1C(=O)C2CC=CCC2C1=O` (centres undefined), the RP-LC retention time came out at 677 s.
As for `Cc1ccc(N2CCN(c3ncc(C(=O)O)c(C)n3)CC2)cc1`, the RP-LC retention time was found to be 863 s.
For `COC(=O)c1cnc2nc(C)ccc2c1Nc1cc(Cl)ccc1C` the value was 716 s; for `CC(C)NC(=O)N1CC(c2nc(-c3ccc(F)cc3)no2)C2(CCOCC2)C1` (centres undefined), 815 s; for `Cn1cc(CCN2CCN(S(=O)(=O)c3ccc(Cl)cc3)CC2)c2cccnc21`, 645 s.
Compound `O=C1CCCc2cc(S(=O)(=O)NCC3CCN(Cc4ccc(F)cc4)CC3)ccc2N1` yielded an RP-LC retention time of 603 s.
The same measure for `C=CCNC(=O)Cc1nnc2cc(-c3nc(C4CC4)no3)ccn12`: 662 s.
`Cc1ccc(-c2cn3ccn(-c4ccc(F)cc4)c(=O)c3n2)cc1`: the RP-LC retention time was 827 s.
The same measure for `COc1ccc(Nc2c(-c3ccc(Cl)cc3)nc3cnccn23)cc1OC`: 828 s.
`CNC(=O)C1CCCN1C(=O)Nc1cccc(C)c1` (centres undefined) yielded an RP-LC retention time of 635 s.
For `O=C(Cc1cccs1)NCCCN1CCOC(c2ccccc2)C1` (centres undefined) the value was 556 s; for `COc1ccccc1NC(=O)Cn1c(=O)n(-c2ccc(F)cc2)c(=O)c2c1cc(C)n2C`, 833 s; for `CSc1cccc(NC(=O)C2CCC(=O)N2S(=O)(=O)c2ccc(C)cc2)c1` (centres undefined), 954 s.
Take `CCS(=O)(=O)N1CCc2nc(-c3ccc(F)cc3)ncc2C1`: the RP-LC retention time came out at 847 s.
As to `COc1ccc(-n2c(=O)n(C)c(=O)c3cc(C(=O)NC4CCCCCC4)cnc32)cc1`, the RP-LC retention time came to 924 s.
Take `CC1=C(c2ccc(C)cc2)S(=O)(=O)N=C1N1CCC(NC(=O)CCC(C)C)CC1`: the RP-LC retention time stood at 888 s.
In the case of `Cc1cc(C)c(S(=O)(=O)NCCn2c(C)cnc2C2CC2)c(C)c1`, the RP-LC retention time was 647 s.
The same measure for `O=C(NC1CCCC1)c1nc(-c2cn(-c3ccc(Cl)cc3)nn2)no1`: 837 s.
As for `O=C(NCc1cc(-c2ccccc2F)on1)c1ccccc1Br`, the RP-LC retention time came to 810 s.
The same measure for `O=S(=O)(Nc1ccc(Cl)cc1F)c1c[nH]c2ncccc12`: 740 s; for `O=C(NCc1ccco1)C1CCN(c2ncccc2-c2nc(-c3ccccc3)no2)CC1`: 964 s.
The same measure for `COc1ccc2cc(C(=O)N3CCC(CC(=O)N4CCN(c5ccccn5)CC4)CC3)[nH]c2c1`: 623 s; for `CC(=O)N1c2ccc(S(=O)(=O)N3CCCCC3)cc2CC1C(=O)NCc1ccc(N(C)C)cc1` (centres undefined): 879 s.
For `COc1ccc(-c2nc(-c3ccc(-n4ccnc4)nc3)no2)c(OC)c1` the value was 698 s.
For `COc1ccc(N2C(=O)C3N=NN(Cc4nc(-c5ccc(Br)cc5)no4)C3C2=O)cc1` (centres undefined), the RP-LC retention time was 1020 s.
In turn, `Cc1noc(-c2ccnc(-n3cnc(C(=O)NCCC(C)C)c3)c2)n1` returned an RP-LC retention time of 849 s.
The same measure for `CCc1ccc(NC(=O)Cn2nc(N3CCCC3)c3ccccc3c2=O)cc1`: 1030 s; for `Cc1ccc(Nc2c(-c3cccc(Br)c3)nc3ccc(C)cn23)cc1`: 830 s; for `O=C(Cc1nnc(-c2cccc(Br)c2)o1)NCc1ccc(F)cc1Cl`: 869 s.
`CCOC(=O)c1noc2nc(C)nc(NCc3ccc(Cl)cc3)c12` registered an RP-LC retention time of 1160 s.
For `COc1ccc(CCc2nc3nccc(-c4ccc5c(c4)OCCCO5)n3n2)cc1OC` the value was 874 s; for `COc1ccccc1N1CCN(c2cc(SCC(=O)Nc3ccc(C)cc3C)ncn2)CC1`, 1040 s; for `COc1cc(C(=O)Nc2nc3c(s2)CCc2ccccc2-3)cc(OC)c1OC`, 1110 s.
`Cc1ccc(-c2ncccc2CNS(=O)(=O)c2ccc(F)c(C)c2)cc1` displayed an RP-LC retention time of 743 s.
The same measure for `CCOC(=O)C1CCN(C(=O)C(C)n2c(=O)c(C(F)(F)F)nc3cc(C)c(C)cc32)CC1` (centres undefined): 1170 s.
